Assay results published in ChEMBL document CHEMBL4706529, “Design, synthesis and in vitro cell-free/cell-based biological evaluations of novel ERCC1-XPF inhibitors targeting DNA repair pathway” (Eur J Med Chem, 2020).
One block for each compound: values may come before it. Calls of active or inactive are those of the source. The calls are words filed in the database; no cut-off is given here.

Key:
[1] = target: T1, DNA excision repair protein ERCC-1/DNA repair endonuclease XPF (Homo sapiens) (UniProt P07992+Q92889); experiment: Inhibition of human His-tagged ERCC1-XPF expressed in Escherichia coli BL21 (DE3) cells using 6-FAM-5'CAGCGCTCGG(20T)CCGAGCGCTG-3'-dabcyl at 10 uM measured for 12 mins by fluorescence incision assay
[2] = target: T1, DNA excision repair protein ERCC-1/DNA repair endonuclease XPF (Homo sapiens); experiment: Binding affinity to His-tagged human ERCC1-XPF expressed in Escherichia coli BL21 (DE3) cells at 4 uM by steady-state fluorescence assay relative to control
[3] = Binding affinity to 6-FAM-5'CAGCGCTCGG(20T)CCGAGCGCTG-3'-dabcyl (unknown origin) measured for 12 mins by fluorescence incision assay
[4] = system: HCT-116; experiment: Cytotoxicity against human HCT-116 cells assessed as reduction in cell viability at 2 uM after 3 days relative to control; format: cell-based; conditions: hct-116, 72 h, time 3 day
[5] = system: HCT-116; experiment: Antiproliferative activity against human UV-radiated HCT-116 cells assessed as sensitizing capacity by measuring reduction in cell survival at 2 to 4 uM by clonogenic survival assay; format: functional, cell-based; conditions: dose 2-4 µM
[6] = target: T2, DNA excision repair protein ERCC-1/DNA repair endonuclease XPF (Homo sapiens, UniProt P07992+Q92889); experiment: Inhibition of human His-tagged human ERCC1-XPF expressed in Escherichia coli BL21 (DE3) cells using 6-FAM-5'CAGCGCTCGG(20T)CCGAGCGCTG-3'-dabcyl measured for 12 mins by fluorescence incision assay
T2 sequence (P07992 whole entry): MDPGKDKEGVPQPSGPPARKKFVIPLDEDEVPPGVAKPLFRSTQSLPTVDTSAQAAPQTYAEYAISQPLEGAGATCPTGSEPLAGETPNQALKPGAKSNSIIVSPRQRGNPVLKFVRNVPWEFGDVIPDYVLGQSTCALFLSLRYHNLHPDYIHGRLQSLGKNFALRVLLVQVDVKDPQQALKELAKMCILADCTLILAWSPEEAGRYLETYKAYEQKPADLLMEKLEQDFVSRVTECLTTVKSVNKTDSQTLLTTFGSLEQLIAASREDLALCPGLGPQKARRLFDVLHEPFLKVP
T2 sequence (Q92889 whole entry): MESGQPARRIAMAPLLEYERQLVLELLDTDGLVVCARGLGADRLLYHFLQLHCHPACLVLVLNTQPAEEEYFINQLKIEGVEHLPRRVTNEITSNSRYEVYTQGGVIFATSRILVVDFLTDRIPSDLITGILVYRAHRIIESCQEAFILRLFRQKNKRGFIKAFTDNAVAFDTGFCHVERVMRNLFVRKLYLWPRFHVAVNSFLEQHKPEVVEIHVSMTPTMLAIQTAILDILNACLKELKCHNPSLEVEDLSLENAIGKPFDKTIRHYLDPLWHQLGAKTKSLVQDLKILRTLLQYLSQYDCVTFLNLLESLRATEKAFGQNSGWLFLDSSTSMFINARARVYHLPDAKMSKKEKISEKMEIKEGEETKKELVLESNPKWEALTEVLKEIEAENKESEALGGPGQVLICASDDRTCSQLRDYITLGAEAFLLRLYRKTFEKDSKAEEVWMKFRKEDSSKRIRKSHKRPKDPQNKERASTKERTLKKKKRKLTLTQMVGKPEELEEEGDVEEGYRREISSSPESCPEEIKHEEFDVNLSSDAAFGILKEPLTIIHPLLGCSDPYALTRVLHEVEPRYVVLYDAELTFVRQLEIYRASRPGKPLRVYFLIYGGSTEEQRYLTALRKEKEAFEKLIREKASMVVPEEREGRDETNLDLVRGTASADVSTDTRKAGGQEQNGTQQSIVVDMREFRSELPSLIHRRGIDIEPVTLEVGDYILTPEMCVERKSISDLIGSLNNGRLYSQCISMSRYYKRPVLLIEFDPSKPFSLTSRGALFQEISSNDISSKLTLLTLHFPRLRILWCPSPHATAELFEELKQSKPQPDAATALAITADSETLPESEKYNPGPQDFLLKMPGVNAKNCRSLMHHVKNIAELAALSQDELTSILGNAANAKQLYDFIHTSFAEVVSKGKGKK

[7] = target: T1, DNA excision repair protein ERCC-1/DNA repair endonuclease XPF (Homo sapiens); experiment: Inhibition of ERCC1-XPF in UV-radiated human HCT-116 cells assessed as cyclobutane pyrimidine dimer DNA repair at 2 uM preincubated for 1 hr followed by 8 J/m2 UV-C radiation and measured up to 24 hrs by IgG-Alexafluor antibody based fluorescent microscopic analysis (reference value: 16%); format: cell-based; parameters: scale not given: the % may be the effect or the level left; conditions: time hrs <=25
[8] = system: HCT-116; experiment: Antiproliferative activity against human HCT-116 cells assessed as sensitizing capacity by measuring reduction in cell survival at 2 uM in presence of cyclophosphamide by clonogenic survival assay; format: functional, cell-based
[9] = target: T2, DNA excision repair protein ERCC-1/DNA repair endonuclease XPF; experiment: Binding affinity to His-tagged human ERCC1-XPF expressed in Escherichia coli BL21 (DE3) cells by steady-state fluorescence assay
[10] = system: HCT-116; experiment: Cytotoxicity against human HCT-116 cells assessed as reduction in cell viability at 5 to 20 uM after 3 days; format: cell-based; conditions: hct-116, 72 h, dose 5-20 µM, time 3 day
[11] = system: HCT-116; experiment: Antiproliferative activity against human HCT-116 cells assessed as sensitizing capacity by measuring reduction in cell survival at 4 uM in presence of cyclophosphamide by clonogenic survival assay; format: functional, cell-based
[12] = Cytotoxicity against human HCT-116 cells assessed as cell viability at 5 uM after 3 days relative to control; format: cell-based; conditions: time 3 day, read-out: Activity
[13] = system: HCT-116; experiment: Antiproliferative activity against human UV-radiated HCT-116 cells assessed as sensitizing capacity by measuring reduction in cell survival at 2 uM by clonogenic survival assay; format: functional, cell-based
[14] = system: HCT-116; experiment: Cytotoxicity against human HCT-116 cells assessed as reduction in cell viability at >= 5 uM after 3 days; format: cell-based; conditions: hct-116, 72 h, time 3 day

Structure (SMILES): COc1ccc2c(Cl)ccnc2c1
inhibition [1]: inactive

Structure (SMILES): COc1ccc2nc3cc(Cl)ccc3c(Cl)c2c1
inhibition [1]: inactive

Structure (SMILES): COc1ccc2c(Nc3ccc(O)c(CN(C)C)c3)ccnc2c1
inhibition [1]: Active

Structure (SMILES): COc1cc(C#N)c(Nc2c3ccc(Cl)cc3nc3ccc(O)cc23)cc1OC
inhibition [1]: Active

Structure (SMILES): COc1ccc2c(Nc3ccc(O)cc3)ccnc2c1
inhibition [1]: inactive

Structure (SMILES): Oc1ccc2nc3cc(Cl)ccc3c(Cl)c2c1
inhibition [1]: Active

Second part, led by results:

Activity [2]: 25%
IC50 [6]: 490 nM
Activity [7]: 35%
inhibition [1]: Active
Kd [9]: 85 nM
Structure (SMILES): CN(C)CCN1CCN(Cc2cc(Nc3c4ccc(Cl)cc4nc4ccc(O)cc34)ccc2O)CC1
Kd [3]: 1050 nM
Activity [4]: 95%
Activity [5]: Active
Activity [8]: Active

inhibition [1]: inactive
Structure (SMILES): CN1CCN(Cc2cc(N)ccc2O)CC1

Activity [2]: < 2%
inhibition [1]: Active
Structure (SMILES): CN1CCN(Cc2cc(Nc3c4ccc(Cl)cc4nc4ccc(OCc5ccccc5)cc34)ccc2O)CC1
Kd [3]: 200 nM
Activity [10]: Non-Toxic
Activity [11]: inactive

inhibition [1]: Active
Kd [9]: 140 nM
Structure (SMILES): COc1ccc2nc3cc(Cl)ccc3c(Nc3ccc(O)c(CN4CCN(C)CC4)c3)c2c1
viability at 72 h, 5 µM [12]: 35%
Activity [13]: Active
Activity [14]: Toxic

inhibition [1]: Active
Structure (SMILES): COc1ccc2c(Nc3ccc(O)c(CN4CCN(CCN(C)C)CC4)c3)ccnc2c1

inhibition [1]: Active
Structure (SMILES): CN1CCN(Cc2cc(Nc3c4ccc(Cl)cc4nc4ccc(O)cc34)ccc2O)CC1
